Source: patent US20230011571A1, “SMALL MOLECULE FURIN INHIBITORS FOR TREATING INFECTIOUS DISEASES” (BP Asset V, Inc., priority 2019, published 2023)

Columns and labels:
Type in all cases: cell-based
dengue virus (DENV) = test: microbe, parasite or virus in culture; conditions: Dengue virus, Vero, 120 h, read-out: Percent viral inhibition DENY
[1] = test system: Chikungunya virus (CHIKV); test: microbe, parasite or virus in culture; conditions: Chikungunya virus, Vero, 48 h, read-out: Percent viral inhibition CHKV
Marburg virus (MARV) = test: organism not typed; conditions: Vero, 72 h, read-out: Percent viral inhibition MARV

| Compound | inhibition at 1 µM (dengue virus (DENV)) [%] | inhibition at 1 µM [1] [%] | inhibition at 1 µM (Marburg virus (MARV)) [%] |
| --- | --- | --- | --- |
| CN1C2CC1CN(c1ncc(Oc3cc(CN4CCC(CC(=O)O)CC4)cc(-c4cc(Cl)cc(Cl)c4)n3)cn1)C2 [Example 228, 2-(1-((2-(3,5-dichlorophenyl)-6-((2-(6-methyl-3,6-diazabicyclo[3.1.l]heptan-3-yl)pyrimidin-5-yl)oxy)pyridin-4-yl)methyl)piperidin-4-yl)acetic acid] | 31.9 | 17.3 | 36.2 |
| O=C(O)CC1CCN(Cc2cc(Oc3cnc(N4CCN(CC5(O)CC5)CC4)nc3)nc(-c3cc(Cl)cc(Cl)c3)c2)CC1 [Example 229, 2-(1-((2-(3,5-dichlorophenyl)-6-((2-(4-((1-hydroxycyclopropyl)methyl)piperazin-1-yl)pyrimidin-5-yl)oxy)pyridin-4-yl)methyl)piperidin-4-yl)acetic acid] | 54.8 | 43.2 | 23.7 |
| CN1C[C@@H]2C[C@H]1CN2c1ncc(Oc2cc(CN3CCC(CC(=O)O)CC3)cc(-c3cc(Cl)cc(Cl)c3)n2)cn1 [Example 231, 2-(1-((2-(3,5-dichlorophenyl)-6-((2-((1S,4S)-5-methyl-2,5-diazabicyclo[2.2.1]heptan-2-yl)pyrimidin-5-yl)oxy)pyridin-4-yl)methyl)piperidin-4-yl)acetic acid] | 44.2 | 25.8 | 66.6 |
| CCN1C[C@@H]2C[C@H]1CN2c1ncc(Oc2cc(CN3CCC(CC(=O)O)CC3)cc(-c3cc(Cl)cc(Cl)c3)n2)cn1 [Example 232, 2-(1-((2-(3,5-dichlorophenyl)-6-((2-((1S,4S)-5-ethyl-2,5-diazabicyclo[2.2.1]heptan-2-yl)pyrimidin-5-yl)oxy)pyridin-4-yl)methyl)piperidin-4-yl)acetic acid] | 19.5 | 37.1 | 43.4 |
| O=C(O)CC1CCN(Cc2cc(Oc3cnc(N4CCN(C5CC5)CC4)nc3)nc(-c3cc(Cl)cc(Cl)c3)c2)CC1 [Example 233, 2-(1-((2-((2-(4-cyclopropylpiperazin-1-yl)pyrimidin-5-yl)oxy)-6-(3,5-dichlorophenyl)pyridin-4-yl)methyl)piperidin-4-yl)acetic acid] | 55.7 | 16.3 | 57.1 |
| CCN1CCN(c2ncc(Oc3cc(CN4CCC(CC(=O)O)CC4)cc(-c4cc(Cl)cc(Cl)c4)n3)cn2)CC1 [Example 234, 2-(1-((2-(3,5-dichlorophenyl)-6-((2-(4-ethylpiperazin-1-yl)pyrimidin-5-yl)oxy)pyridin-4-yl)methyl)piperidin-4-yl)acetic acid] | 36.9 | 26.7 | 49.1 |
| CC(C)N1CCN(c2ncc(Oc3cc(CN4CCC(CC(=O)O)CC4)cc(-c4cc(Cl)cc(Cl)c4)n3)cn2)CC1 [Example 235, 2-(1-((2-(3,5-dichlorophenyl)-6-((2-(4-isopropylpiperazin-1-yl)pyrimidin-5-yl)oxy)pyridin-4-yl)methyl)piperidin-4-yl)acetic acid] | 0 | 27.4 | 69.8 |
| O=C(O)CC1CCN(Cc2cc(Oc3cnc(N4CCN(CCF)CC4)nc3)nc(-c3cc(Cl)cc(Cl)c3)c2)CC1 [Example 236, 2-(1-((2-(3,5-dichlorophenyl)-6-((2-(4-(2-fluoroethyl)piperazin-1-yl)pyrimidin-5-yl)oxy)pyridin-4-yl)methyl)piperidin-4-yl)acetic acid] | 64.5 | 39.8 | 68.5 |
| CC(O)CCN1CCN(c2ncc(Oc3cc(CN4CCC(CC(=O)O)CC4)cc(-c4cc(Cl)cc(Cl)c4)n3)cn2)CC1 (stereo not drawn) [Example 237, 2-(1-((2-(3,5-dichlorophenyl)-6-((2-(4-(3-hydroxybutyl)piperazin-1-yl)pyrimidin-5-yl)oxy)pyridin-4-yl)methyl)piperidin-4-yl)acetic acid] | 52.1 | 37 | 37.7 |
| CC(CCO)N1CCN(c2ncc(Oc3cc(CN4CCC(CC(=O)O)CC4)cc(-c4cc(Cl)cc(Cl)c4)n3)cn2)CC1 (stereo not drawn) [Example 238, 2-(1-((2-(3,5-dichlorophenyl)-6-((2-(4-(4-hydroxybutan-2-yl)piperazin-1-yl)pyrimidin-5-yl)oxy)pyridin-4-yl)methyl)piperidin-4-yl)acetic acid] | 66.1 | 35.8 | 56.8 |
| CC(CCN(C)C)N1CCN(c2ncc(Oc3cc(CN4CCC(CC(=O)O)CC4)cc(-c4cc(Cl)cc(Cl)c4)n3)cn2)CC1 (stereo not drawn) [Example 240, 2-(1-((2-(3,5-dichlorophenyl)-6-((2-(4-(4-(dimethylamino)butan-2-yl)piperazin-1-yl)pyrimidin-5-yl)oxy)pyridin-4-yl)methyl)piperidin-4-yl)acetic acid] | 36.8 | 28.5 | 67.4 |
| CNC(=O)OCCN1CCN(c2ncc(Oc3cc(CN4CCC(CC(=O)O)CC4)cc(-c4cc(Cl)cc(Cl)c4)n3)cn2)CC1 [Example 241, 2-(1-((2-(3,5-dichlorophenyl)-6-((2-(4-(2-((methylcarbamoyl)oxy)ethyl)piperazin-1-yl)pyrimidin-5-yl)oxy)pyridin-4-yl)methyl)piperidin-4-yl)acetic acid] | 43.4 | 32.4 | 73.1 |
| CS(=O)(=O)CCCN1CCN(c2ncc(Oc3cc(CN4CCC(CC(=O)O)CC4)cc(-c4cc(Cl)cc(Cl)c4)n3)cn2)CC1 [Example 242, 2-(1-((2-(3,5-dichlorophenyl)-6-((2-(4-(3-(methylsulfonyl)propyl)piperazin-1-yl)pyrimidin-5-yl)oxy)pyridin-4-yl)methyl)piperidin-4-yl)acetic acid] | 16.4 | 31.9 | 55.5 |
| CS(=O)(=O)CCCN1CCN(c2ccc(Oc3cc(CN4CCC(CC(=O)O)CC4)cc(-c4cc(Cl)cc(Cl)c4)n3)cn2)CC1 [Example 243, 2-(1-((2-(3,5-dichlorophenyl)-6-((6-(4-(3-(methylsulfonyl)propyl)piperazin-1-yl)pyridin-3-yl)oxy)pyridin-4-yl)methyl)piperidin-4-yl)acetic acid] | 37.9 | 14.6 | 46.8 |
| COCCN1CCN(c2ccc(Oc3cc(CN4CCC(CC(=O)O)CC4)cc(-c4cc(Cl)cc(Cl)c4)n3)cn2)CC1 [Example 244, 2-(1-((2-(3,5-dichlorophenyl)-6-((6-(4-(2-methoxyethyl)piperazin-1-yl)pyridin-3-yl)oxy)pyridin-4-yl)methyl)piperidin-4-yl)acetic acid] | 14 | 6.34 | 61.4 |
| COCCN1CCN(c2ncc(Oc3cc(CN4CCC(CNC(C)=O)CC4)cc(-c4cc(Cl)cc(Cl)c4)n3)cn2)CC1 [Example 245, N-((1-((2-(3,5-dichlorophenyl)-6-((2-(4-(2-methoxyethyl)piperazin-1-yl)pyrimidin-5-yl)oxy)pyridin-4-yl)methyl)piperidin-4-yl)methyl)acetamide] | 53.3 | 24.1 | 53.9 |
